Assay results from patent US20050089573A1, “Oral pharmaceutical formulation containing ibandronate” (F. HOFFMANN-LA ROCHE, priority 1996, published 2005).

Test: clinical studies using ibandronate in rapidly releasing coated oral administration forms (tolerability)
Type: in vivo, patients
Excerpt: The film dissolving upon contact with digestive juice is preferably a coating which dissolves pH-independently. The adjuvant coating may be coated using methods common in pharmaceutical technology. […] This is particularly advantageous since the administration forms of the invention are also well-tolerated by patients lying in bed.

[1] = administration forms coated with a film which quickly releases the active substance

CCCCCN(C)CCC(O)(P(=O)(O)O)P(=O)(O)O [ibandronate, 1-hydroxy-3-(N-methyl-N-pentyl)aminopropyl-1,1-diphosphonic acid]
irritations in the oesophagus when swallowing the tablets [1]: no irritations in the oesophagus | oesophagitis [1]: does not occur | cases of nausea, vomiting, pain or diarrhoea (patients treated with rapidly releasing administration forms, compared to what is otherwise observed when administering aminobisphosphonates): significantly less cases | side effects observed in clinical studies (peroral forms coated with film that dissolves pH-independently, even at high dosages): no significant side effects
